Consider two compounds from patent US20140030304A1, “Process for the Treatment of Synthetic Textiles with Cationic Biocides” (priority 2011, published 2014).

The subject of the test is Escherichia coli. Description: Quick-kill test (AATCC-100) on treated PP textile, Escherichia coli. Type of test: cell-based.

Where two headings read alike, the source gives them in different places.

Turning to `CCCCCCCCCCCCCCCC[N+](C)(C)C.[Cl-]` [CTAC, cetyltrimethylammonium chloride], the “log-reduction / killing, E. coli” value (textile spray-treated with aqueous solution of unformulated biocide (2-3% w), 5 min, positive control) is 1.5 log. Moreover, the “biocide activity against E. coli” value (textile spray-treated with aqueous solution of unformulated biocide (2-3% w), after 2 h) is recorded as “very effective”.
In the case of polyhexamethylenbiguanid [PHMB], the “log-reduction / killing, E. coli” value is on record as “showed killing”.
